Experiment [1] has as its target T1, Calpain-2 catalytic subunit (Sus scrofa, UniProt P43367).
T1 sequence (P43367 whole entry): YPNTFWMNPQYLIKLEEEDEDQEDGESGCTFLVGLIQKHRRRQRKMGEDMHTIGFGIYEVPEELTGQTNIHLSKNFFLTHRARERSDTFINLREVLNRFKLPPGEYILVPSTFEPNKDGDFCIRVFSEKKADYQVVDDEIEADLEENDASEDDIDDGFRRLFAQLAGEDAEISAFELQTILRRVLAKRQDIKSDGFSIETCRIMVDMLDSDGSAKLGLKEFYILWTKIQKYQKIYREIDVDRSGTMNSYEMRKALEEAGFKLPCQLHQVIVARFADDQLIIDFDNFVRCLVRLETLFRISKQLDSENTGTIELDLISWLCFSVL
Description: m-calpain protease blockers, concentration series – biochemical, fluorogenic peptide substrate, dose response (AID 1420). Format: functional.

In another experiment the target is T2, Streptokinase A (Streptococcus pyogenes serotype M1, UniProt P10520).
T2 sequence (P10520 whole entry): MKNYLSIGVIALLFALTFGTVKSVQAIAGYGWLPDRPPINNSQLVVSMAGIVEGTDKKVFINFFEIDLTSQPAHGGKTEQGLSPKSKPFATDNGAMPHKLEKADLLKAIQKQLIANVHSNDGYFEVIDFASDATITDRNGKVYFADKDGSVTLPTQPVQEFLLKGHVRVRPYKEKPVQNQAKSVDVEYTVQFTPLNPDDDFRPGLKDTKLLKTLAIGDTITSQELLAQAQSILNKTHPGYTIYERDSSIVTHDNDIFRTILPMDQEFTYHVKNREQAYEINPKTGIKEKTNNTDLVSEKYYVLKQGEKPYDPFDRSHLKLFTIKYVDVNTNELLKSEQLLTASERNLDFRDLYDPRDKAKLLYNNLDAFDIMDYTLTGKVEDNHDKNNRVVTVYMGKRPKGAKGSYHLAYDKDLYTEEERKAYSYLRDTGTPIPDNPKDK
Put plainly: viability-normalized secreted streptokinase activity reduction – plasminogen activation absorbance, OD405, dose response (AID 1914).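 Also: secreted streptokinase activity via plasminogen activation per viability signal from cell pellet.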 Format: functional, Streptococcus pyogenes M1 GAS.

Activity calls are given as the source filed them. A value given as a limit tells only on which side of the number the result lay.

Regarding `Cn1nc(-c2ccc(Cl)cc2)nc2c(=O)n(C)c(=O)nc1-2`, in experiment [1], the IC50 is on record as 24.7 µM (not active).

Turning to `SC1=Nc2ccccc2C1`, in experiment [1], the IC50 was 14.9 µM (not active).

As for `COc1ccc(C(NC(=O)C(C)C)c2ccc3cccnc3c2O)cc1` (centres undefined), the EC50 at Streptokinase A is given as > 150 µM (not active).

Regarding `O=C(Cc1ccc([N+](=O)[O-])cc1)N/N=C/c1ccc([N+](=O)[O-])o1`, the 50% effective concentration (EC50) on Streptokinase A is 37 µM (active).

Usually IC50 stands for the concentration that inhibits the measured activity by half. The EC50 is the concentration at which the effect is half-maximal.
